Read-outs that look alike come from different tables or passages of the source.

The source of these data is US7189724B2, “Quinoxaline derivatives having antiviral activity” (Valeant Research and Development, priority 2003, dated 2007).

The subject of assay [1] is HCV replicon RNA in replicon cells (Huh-7). Description: HCV Replicon Assay (reduction of HCV RNA, QuantiGene). To be noted: Hepatitis C virus; for IC50: read-out: HCV Replicon (IC50); for EC50: first part of Table 1 (scaffold drawing 18). It is filed as cell-based. Here is the method: The anti-HCV activity of the quinoxaline derivatives was tested by replicon and BVDV cell-line based assays. The HCV NS5B polymerase activity was tested as described below, and was further tested for its capability of inhibition of replication of the hepatitis C virus in a cell-line based HCV replicon assay as described in V. Lohmann, F. Komer, J.-O. Koch, U. Herian, L. Theilmann, R. Bartenschlager, “Replication of a Subgenomic Hepatitis C virus RNAs in a Hepatoma Cell Line”, Science, 1999, 285:110.
HCV Replicon Assay. The replicon cells (Huh-7) contain replicating HCV replicon RNA, which was modified in the structural region (replacing the structural region with a neomycin resistance marker). Survival of the replicon cells under G418 selection relies on the replication of HCV RNA and subsequently expression of neomycin phosphoryltransferase. The ability of modified nucleoside libraries and compounds to suppress HCV RNA replication was determined using the QuantiGene™ Assay Kit (Bayer Diagnostics, Tarrytown N.Y.). The assay measures the reduction of HCV RNA molecules in the treated cells. Replicon cells were incubated at 37° C. for 3 days in the presence of nucleoside libraries and compounds before being harvested for detection. The assay protocol was modified based on literature procedure (V. Lohmann, F. Komer, J. O. Koch, U. Herian, L. Theilmann, R. Bartenschlager, Science, 1999, 285, 110–113). The HCV subgenomic replicon cell line was provided by Dr. R. Bartenschlager.
For orientation: In antiviral work, replicon cells carry a viral genome segment that copies itself.

Assay [2] addresses T1, HCV NS5B polymerase (Hepatitis C virus genotype 1b, UniProt Q9WMX2).
T1 construct: HCV NS5B was derived from a cDNA clone encoding HCV-1b CON1 strain, and was expressed and purified from E. coli; made in house; host or cells: E. coli
As to the kind of experiment: De novo RNA synthesis activity assay for HCV NS5B polymerase. It is filed as biochemical, HCV-1b CON1 strain. The source says: HCV NS5B was derived from a cDNA clone encoding HCV-1b CON1 strain, and was expressed and purified from E. coli. Various [α-^33P]rNTPs (3000 Ci/mmol) were purchased from Perkin Elmer. 3′-Deoxy ribonucleosides, their 5′-triphosphates and dinucleotide primers were from Sigma, TriLink (San Diego, Calif.) or ICN Biochemicals. All other reagents were of the highest grade available from ICN, Sigma, Fisher, or Ambion.
An HCV mini-genome of 2.1-kb contains an entire 5′-UTR (untranslated region), part of NS5B sequence and an entire 3′-UTR was constructed from an internal deletion between two KpnI sites on the HCV replicon plasmid, pFK389/NS3-3′. To generate the in vitro transcribed mini-genome RNA, the plasmid DNA was linearized with AseI and ScaI and transcribed in vitro using a MegaScript kit (Ambion, Austin, Tex.). After phenol-chloroform extraction and isopropanol precipitation, the RNA was resuspended in RNase-free water and stored at −80° C. before use. This HCV strain CON1-based template was used for the standard NS5B-catalyzed RNA synthesis assay.
A standard NS5B activity assay was performed at 23C in a total volume of 25 μl. The reaction buffer contained 50 mM Tris, pH 7.0, 10 mM MgCl2, 50 mM NaCl, 5 mM DTT (add fresh) and 0.05 mg/ml BSA. 0.4 μg of the RNA template was incubated with NS5B enzyme (250 nM) before adding a mixture of radiolabeled nucleotide (0.2 μCi) and cold nucleotide cocktail to initiate a reaction. The assay was incubated for 1 hr and terminated by addition of 75 μl of 5% trichloroacetic acid (TCA) and 0.05% pyrophosphate solution. The quenched solution was incubated at room temperature for 10 min to precipitate out polymeric products and subsequently transferred to a 96-well white GF/B filter microplate (Packard Instrument) using a Packard Filtermate Universal Harvester. The filter plate was washed five times by water and one time by ethanol before vacuum drying. 40 μl of liquid scintillation cocktail (Packard MicroSint™) was added to each well. Radioactivity incorporated into the product was counted in a 96-well format using a Packard TopCount. IC50 values, defined as the inhibitor concentration to suppress 50% of NS5B activity, were determined by varying the compound concentration. The results in Table 1 are data obtained using the HCV NS5B assays described above.

Where [3] appears, read: 72 h, Huh-7 replicon cells, 3 days at 37° C., second part of Table 1 (scaffold drawing 19).
The mark [4] stands for this setting: 72 h, Huh-7 replicon cells, 3 days at 37° C.
Setting [5] is: NS5B 250 nM, 23C, 1 hr, second part of Table 1 (scaffold drawing 19), read-out: HCV NS5B (EC50).

T1 sequence (Q9WMX2 2420-3010): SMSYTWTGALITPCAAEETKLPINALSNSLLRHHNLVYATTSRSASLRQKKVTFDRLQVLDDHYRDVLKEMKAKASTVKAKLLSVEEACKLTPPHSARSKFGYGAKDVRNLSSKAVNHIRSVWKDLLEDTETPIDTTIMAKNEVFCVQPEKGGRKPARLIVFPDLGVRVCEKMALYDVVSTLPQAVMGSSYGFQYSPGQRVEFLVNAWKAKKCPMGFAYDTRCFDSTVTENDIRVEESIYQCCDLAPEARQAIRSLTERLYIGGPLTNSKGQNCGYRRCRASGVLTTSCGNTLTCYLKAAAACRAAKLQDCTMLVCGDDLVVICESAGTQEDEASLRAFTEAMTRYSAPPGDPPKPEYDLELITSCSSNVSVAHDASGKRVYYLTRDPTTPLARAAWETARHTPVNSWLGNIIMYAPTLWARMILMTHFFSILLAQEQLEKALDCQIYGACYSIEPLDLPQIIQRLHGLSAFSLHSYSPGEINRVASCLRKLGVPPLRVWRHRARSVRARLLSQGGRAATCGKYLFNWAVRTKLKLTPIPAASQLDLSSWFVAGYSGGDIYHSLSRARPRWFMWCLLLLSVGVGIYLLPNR

As a reminder, the IC50 is the concentration that gives 50% inhibition. As a reminder, the EC50 is the concentration at which the effect is half-maximal. With `O=C(O)c1ccc2nc(-c3ccccn3)c(-c3ccccn3)nc2c1`, in assay [1] (setting [3]), the IC50 was more than 50 µM. Further, the EC50 in assay [2] was more than 50 µM.

In the case of `O=C(N[C@@H](Cc1c[nH]c2ccc(O)cc12)C(=O)O)c1ccc2nc(-c3ccc(F)cc3)c(-c3ccc(F)cc3)nc2c1` [R=OH, X=OH], the EC50 in assay [1] (setting [4]) lay in the range of 10 to 50 µM. The compound further showed an IC50 in assay [2] of less than 10 µM.

As for `O=C(N[C@@H](Cc1c[nH]c2ccc(O)cc12)C(=O)O)c1ccc2nc(-c3ccccc3)c(-c3ccccc3)nc2c1`, the EC50 in assay [2] (setting [5]) is more than 50 µM.

As to `COC(=O)[C@H](Cc1c[nH]c2ccccc12)NC(=O)c1ccc2nc(-c3ccccc3)c(-c3ccccc3)nc2c1`, the EC50 in assay [2] (setting [5]) was more than 50 µM.

Take `COC(=O)c1ccc2nc(-c3ccc(F)cc3)c(-c3ccc(F)cc3)nc2c1`: the IC50 in assay [1] (setting [3]) is more than 50 µM. In assay [2], the EC50 is more than 50 µM.

On to `O=C(N[C@@H](Cc1c[nH]c2ccccc12)C(=O)O)c1ccc2nc(-c3ccccn3)c(-c3ccccn3)nc2c1`, for which, in assay [1] (Huh-7, 72 h), the IC50 is more than 50 µM. Moreover, the EC50 in assay [2] is more than 50 µM.

With `COC(=O)[C@H](Cc1c[nH]c2ccc(O)cc12)NC(=O)c1ccc2nc(-c3ccc(F)cc3)c(-c3ccc(F)cc3)nc2c1` [R=OCH3, X=OH], in assay [1] (setting [4]), the EC50 is 10 to 50 µM. Moreover, in assay [2], the IC50 was less than 10 µM.

On to `COC(=O)[C@H](Cc1c[nH]c2ccccc12)NC(=O)c1ccc2nc(-c3ccccn3)c(-c3ccccn3)nc2c1`, for which the IC50 in assay [1] (setting [3]) was more than 50 µM. This compound also showed an EC50 in assay [2] of more than 50 µM.

`O=C(N[C@@H](Cc1c[nH]c2ccccc12)C(=O)O)c1ccc2nc(-c3ccccc3)c(-c3ccccc3)nc2c1` registered an EC50 in assay [2] of 10 to 50 µM.

Take `Cc1ccc(-c2nc3cc(C(=O)N[C@@H](Cc4c[nH]c5ccc(O)cc45)C(=O)O)ccc3nc2-c2ccc(Cl)cc2)cc1`: the EC50 in assay [2] (setting [5]) is less than 10 µM.

For `O=C(O)c1ccc2nc(-c3ccccc3)c(-c3ccccc3)nc2c1`, the IC50 in assay [1] (setting [3]) was more than 50 µM. The same compound gave an EC50 in assay [2] of less than 10 µM.

In the case of `Cc1ccc(-c2nc3cc(C(=O)O)ccc3nc2-c2ccc(Cl)cc2)cc1`, in assay [1] (Huh-7, 72 h), the IC50 was in the range of 10 to 50 µM. Further, the EC50 in assay [2] (setting [5]) is less than 10 µM.

In assay [1] (setting [4]), `NC(=O)[C@H](Cc1c[nH]c2ccc(O)cc12)NC(=O)c1ccc2nc(-c3ccc(F)cc3)c(-c3ccc(F)cc3)nc2c1` [R=NH2, X=OH] came in with an EC50 of 10 to 50 µM. This compound also had an IC50 in assay [2] of less than 10 µM.
